Results: US11198710B2, “Transgenic plant having herbicide resistance” (priority 2016, dated 2021)
Like-named read-outs stand apart in the source and are kept apart here.

Assays:
[1] = tested on: wild-type rice plant (Nipponbare); assay: Sensitivity of wild-type rice (Nipponbare) to VLCFAE-inhibiting herbicides, gellan gum medium; type: in vivo; details: Oryza sativa, 168 h; for minimal effective concentration: read-out: Minimal inhibitory concentration; for IC50: read-out: I50
Method: Whether or not a rice plant comprising the TaQ8GTC0 gene introduced therein has VLCFAE-inhibiting herbicide resistance was determined on the basis of a difference in sensitivity of rice between transformant and wild-type. Accordingly, the sensitivity of the wild-type rice plant (Nipponbare) to VLCFAE-inhibiting herbicides used in the glutathione conjugation activity test was examined as described below.
The growth inhibition test was carried out using a gellan gum medium. Hoagland's mix and 3 g of gellan gum were suspended in 1 liter of distilled water and thoroughly dissolved therein by heating in a microwave. A fraction of the resultant (15 ml) was poured in a tubular bottle before it was cooled. When the herbicide (an acetone solution) was to be incorporated thereinto, the herbicide was simultaneously added at the time of filling of the gellan gum medium into the tubular bottle, followed by thorough mixing (final acetone concentration: 0.1%). Rice hulls were soaked in a 50-fold diluted sodium hypochlorite solution (antiformin) (Wako) for approximately 20 minutes and then thoroughly rinsed with water. Sterilized seeds were soaked in distilled water and allowed to stand at 27° C. for germination (for approximately 2 days). Germinating seeds were transferred with the sprout side up to a gellan gum medium containing herbicide (the tubular bottle). Subsequently, these samples, together with a beaker filled with distilled water, were placed in a transparent case, which was then covered with a clear plastic wrap. These samples were grown at 27° C. under fluorescent light illumination (14 hours of a light period and 10 hours of a dark period) for 1 week, the plants were sampled, and the plant heights were then measured. Inhibition of shoot growth was determined by comparison to control plant grown in the absence of herbicide and the concentration required for 50% inhibition (IC50) was determined by the Probit method.

[2] = tested on: rice plants comprising the TaQ8GTC0 gene introduced therein; assay: Herbicide resistance test of rice plants comprising the TaQ8GTC0 gene, gellan gum medium, plant height; type: in vivo; details: lineage #3-13; minimal concentration (×1), ×4 and ×16 of Table 4
Method: Hoagland's mix and 3 g of gellan gum were suspended in 1 liter of distilled water and thoroughly dissolved therein by heating in a microwave. A fraction of the resultant (15 ml) was injected into a tubular bottle before it was cooled (30 ml was injected into the plate). The herbicide was simultaneously added at the time of injection of the gellan gum medium into the tubular bottle or plate, followed by thorough mixing. Rice hulls were soaked in a 50-fold diluted sodium hypochlorite solution (antiformin) (Wako) for approximately 20 minutes and then thoroughly washed with water. Sterilized seeds were soaked in distilled water and allowed to stand at 27° C. for germination (for approximately 2 days). Germinating seeds were softly planted in the gellan gum medium (plate) containing 0.25 μM BS. These samples, together with a beaker filled with distilled water, were placed in a transparent case, which was then covered with a clear plastic wrap. These samples were grown at 27° C. under fluorescent light illumination (14 hours of a light period and 10 hours of a dark period) for 2 days. Thereafter, rice seeds that were determined to have BS resistance with the use of root elongation as the indicator were transferred to gellan gum media containing pyroxasulfone (tubal bottles) at the final concentrations of 10^−8, 10^−7, 10^−6, and 10^−5M, respectively. Subsequently, these samples, together with a beaker filled with distilled water, were placed in a transparent case, which was then covered with a clear plastic wrap. These samples were grown at 27° C. under fluorescent light illumination (14 hours of a light period and 10 hours of a dark period) for 4 to 5 days, and the plant heights were then measured. Inhibition of shoot growth was determined by comparison to control plants grown in the absence of pyroxasulfone and the concentration for required 50% inhibition (IC50) was determined by the Probit method.
Resistance of rice plants comprising the TaQ8GTC0 gene introduced therein to VLCFAE-inhibiting herbicides was tested in the same manner as with the pyroxasulfone resistance test described above.
FIGS. 7-1 to 7-6 show the results. In FIGS. 7-1 to 7-6, the concentration of 0 μM, the minimal concentration shown in Table 4 (×1), the concentration 4 times higher than the minimal concentration shown in Table 4 (×4), and the concentration 16 times higher than the minimal concentration shown in Table 4 (×16) are shown successively from left to right.

[3] = tested on: TaQ8GTC0 protein; assay: Glutathione conjugation activity of the TaQ8GTC0 protein to VLCFAE-inhibiting herbicides (HPLC); type: biochemical, wheat (Triticum aestivum); details: 378 ng TaQ8GTC0 protein, 10 μl of 1 mM herbicide in 200 μl, 30° C., 15 minutes; mean ± standard deviation
Method: All the VLCFAE-inhibiting herbicides used in this example were added to the reaction mixture as acetone solutions. Conjugation reactions to the VLCFAE-inhibiting herbicides were performed in a reaction mixture (total amount: 200 μl) containing 50 μl of 100 mM potassium phosphate buffer (pH 6.8), 10 μl of 1 mM VLCFAE-inhibiting herbicide, 20 μl of 10 mM reduced glutathione (pH 7.0), 6 μl of the TaQ8GTC0 protein (378 ng in total, PBS buffer solution) and 114 μl of PBS buffer, the reaction was conducted at 30° C. for 15 minutes, the reaction product was filtered through a […], and 50 μl of the filtered solution was injected into HPLC. HPLC analysis conditions were as described below.
Apparatus: Agilent 1100 series
Column: CAPCELL PAK C18 AQ 4.6 mm (i.d.)×250 mm (SHISEIDO)
Mobile phase: acetonitrile/distilled water=5/95 (hold for 5 min)→(4 min)→40/60 (hold for 4 min)→(4 min)→90/10 (hold for 8 min)→(1 min)→5/95 (hold for 4 min) (each solvent containing 0.5% acetic acid)
When the activity of glutathione conjugation to VLCFAE-inhibiting herbicides was analyzed, the amount of glutathione conjugates (GS conjugates) produced was determined based on the amount of VLCFAE-inhibiting herbicides decreased in the reaction solution.
In Example 1, the conjugation activity to cafenstrole was determined via quantification of the compound released by the glutathione conjugation of this herbicide. In addition, peaks of GS conjugate of other herbicides (i.e., metolachlor, alachlor, flufenacet, mefenacet, phentolazamide, indanofan, anilofos, and piperophos) were unknown. When analyzing the glutathione conjugation activities to these herbicides, accordingly, glutathione conjugation reactions were performed to produce GS conjugate in the modified conditions (i.e., more amount of enzyme was added or the conjugation reaction was conducted for longer time) in the beginning to produce glutathione conjugates (GS conjugates), and the peaks were identified with LC/MS.

[4] = tested on: Arabidopsis thaliana plant comprising the TaQ8GTC0 gene introduced therein; assay: Sensitivity of Arabidopsis thaliana comprising the TaQ8GTC0 gene to herbicides on MS agar medium; type: in vivo; details: KLB-718 1-1-5; concentrations of Table 5; 22° C., 14 days
Method: A medium was prepared as described below, so as to examine the pyroxasulfone resistance of the Arabidopsis thaliana plant comprising the TaQ8GTC0 gene introduced therein. At the outset, the Murashige-Skoog (MS) media (1 bag), thiamin hydrochloride (3 mg), nicotinic acid (5 mg), pyridoxin hydrochloride (0.5 mg), and sucrose (10 g) were added into a 1-liter beaker, a pH was adjusted to 5.7, the volume of the content was adjusted to 1 liter, and 8 g (0.8%) of agar was added. The resultant was autoclaved and cooled to room temperature, and pyroxasulfone (an acetone solution) was added thereto. A 30-ml fraction thereof was fractionated into a No. 2 square plate to prepare an MS medium containing pyroxasulfone at a given concentration.
Pyroxasulfone sensitivity of transgenic Arabidopsis thaliana plants was tested with the use of the medium prepared above as described below. A necessary amount of Arabidopsis thaliana dry seeds was agitated in 70% ethanol for 2 minutes and in hypochlorous acid containing 0.02% Triton-X-100 for 15 minutes, followed by washing with sterile water 10 times. Subsequently, the seeds were suspended in 1 ml of the autoclaved 0.1% agar solution, the suspension was thoroughly mixed to prepare a homogeneous solution, and a total of 30 seeds were each placed on the medium surface. The resultant was sealed with a surgical tape, allowed to stand at 4° C. for 2 days, and then transferred to 22° C. for germination.
On the basis of the concentrations above, sensitivity of the Arabidopsis thaliana plant comprising the TaQ8GTC0 gene introduced therein to VLCFAE-inhibiting herbicides was examined. The results are show in FIGS. 13 and 14. The photographs shown in FIGS. 13 and 14 were taken after the plants were grown at 22° C. for 14 days.

[5] = molecular target: maize-derived GST (GSTI, ZmM16901) (Zea mays, UniProt P12653); details: Non-Patent Document 11; cited from earlier work
[6] = tested on: ZmGST8 (ZmQ9FQD1); details: Non-Patent Document 12; cited from earlier work
[7] = tested on: TaQ8GTC1-R protein; assay: Glutathione conjugation activity of the TaQ8GTC1-R protein to CDNB (absorbance at 340 nm); type: biochemical, wheat; details: 30° C., pH 7.6, n=2
Method: The glutathione conjugation activity to CDNB was assayed in a reaction mixture (1 ml in total) containing 634 μl of 100 mM potassium phosphate buffer (pH 7.6), 300 μl of 3.3 mM reduced glutathione, 33 μl of a purified enzyme (PBS solution containing 20% glycerol), and 33 μl of 30 mM CDNB (ethanol solution). First, reaction mixture except CDNB was prepared, enzyme reaction was started by the addition of CDNB, and the absorbance at 340 nm was monitored at 30° C. The enzyme activity was calculated using a molar extinction coefficient of glutathione conjugate of CDNB (GS-CDNB) (9.6 mM^−1cm^−1). The amount of GS-CDNB produced in a negative control mixture prepared with the addition of PBS containing 20% glycerol instead of the enzyme (i.e., a non-enzymatic reaction group) was designated as the amount of non-enzymatic production.

[8] = minimal concentration at which growth of wild-type rice is inhibited
[9] = shoot growth, 1 week, Probit method

maize-derived GST (GSTI, ZmM16901), sequence (P12653 whole entry): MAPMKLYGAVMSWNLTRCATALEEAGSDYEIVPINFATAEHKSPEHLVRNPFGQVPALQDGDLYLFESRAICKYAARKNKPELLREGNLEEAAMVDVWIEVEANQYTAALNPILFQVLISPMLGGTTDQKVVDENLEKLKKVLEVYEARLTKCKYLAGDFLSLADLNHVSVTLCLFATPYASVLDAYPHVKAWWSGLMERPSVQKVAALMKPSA

| Compound | minimal effective concentration [1, 8] | IC50 [1, 9] | growth of rice plants comprising the TaQ8GTC0 gene on herbicide medium [2] | IC50 [1] | minimal effective concentration [1] | Enzyme activity (glutathione conjugation) [3] | sensitivity of the Arabidopsis thaliana plant comprising the TaQ8GTC0 gene to VLCFAE-inhibiting herbicides [4] | conjugation activity [5] | conjugation activity [6] | glutathione conjugation activity to CDNB [7] |
| --- | --- | --- | --- | --- | --- | --- | --- | --- | --- | --- |
| COP(=S)(OC)SCC(=O)N(c1ccc(Cl)cc1)C(C)(C)C [Anilofos] | 0.5 µM | 377 nM |  |  |  |  |  |  |  |  |
| CCCOP(=S)(OCCC)SCC(=O)N1CCCCC1C (stereo not drawn) [Piperophos] |  |  | the growth thereof was inhibited at the minimal concentration | 1310 nM | 2.5 µM |  |  |  |  |  |
| CCN(C(=O)n1nnn(-c2ccccc2Cl)c1=O)C1CCCCC1 [Fentrazamide] | 0.5 µM | 46 nM | the growth thereof was inhibited at the minimal concentration |  |  | 0.93 ± 0.2 μmol/mg protein/15 min |  |  |  |  |
| CCC1(CC2(c3cccc(Cl)c3)CO2)C(=O)c2ccccc2C1=O (stereo not drawn) [Indanofan] | 0.25 µM | 61 nM | the growth thereof was inhibited at the minimal concentration |  |  |  |  |  |  |  |
| CCOc1cc(Cl)c(CS(=O)(=O)C2=NOC(C)(C)C2)cc1Cl [Fenoxasulfone, 3-[(2,5-dichloro-4-ethoxybenzyl)sulfonyl]-4,5-dihydro-5,5-dimethyl-1,2-oxazole] | 0.05 µM | 54 nM | the growth thereof was not affected at the maximal test concentration |  |  | 19.5 ± 8.4 μmol/mg protein/15 min | strong resistance |  |  |  |
| CCc1cccc(CC)c1N(COC)C(=O)CCl [Alachlor] | 0.5 µM | 332 nM | not affected at the minimal concentration, but the growth thereof was inhibited at the 4-fold concentration |  |  | 1.5 ± 0.1 μmol/mg protein/15 min |  | high-level conjugation activity | does not exert conjugation activity |  |
| CCc1cccc(C)c1N(C(=O)CCl)C(C)COC (stereo not drawn) [Metolachlor] | 0.75 µM | 636 nM | not affected at the minimal concentration, but the growth thereof was inhibited at the 4-fold concentration |  |  | 2.2 ± 0.8 μmol/mg protein/15 min |  | does not exert conjugation activity |  |  |
| CCN(CC)C(=O)n1cnc(S(=O)(=O)c2c(C)cc(C)cc2C)n1 [Cafenstrole] | 0.75 µM | 131 nM | the growth thereof was inhibited at the minimal concentration |  |  | 0.46 ± 0.1 μmol/mg protein/15 min |  |  |  |  |
| CC(C)N(C(=O)COc1nnc(C(F)(F)F)s1)c1ccc(F)cc1 [Flufenacet] | 0.075 µM | 42 nM | the growth thereof was inhibited at the minimal concentration |  |  |  |  |  |  |  |
| CN(C(=O)COc1nc2ccccc2s1)c1ccccc1 [Mefenacet] | 0.75 µM | 388 nM | not affected at the minimal concentration, but the growth thereof was inhibited at the 4-fold concentration |  |  |  |  |  |  |  |
| O=[N+]([O-])c1ccc(Cl)c([N+](=O)[O-])c1 [CDNB, 2,4-dinitrochlorobenzene] |  |  |  |  |  |  |  |  |  | 2.17 μmol/min/mg protein |
